This is an account of results in paper PMC6345774, “Kinetic and thermodynamic effects of phosphorylation on p53 binding to MDM2” (Scientific Reports, 2019).

Data set [1] can be described thus: TFE titrations monitored by CD (helical population). It counts as physicochemical. To be noted: 5 °C, 50 mM phosphate pH 6.8, peptide 40 μM. As for the experimental part: Unlike the above programs, which make assumptions about how the ellipticity signal relates to secondary structure content, a TFE titration allows the determination of helical content derived from the free-energy change for the equilibrium between folded (in TFE) and unfolded peptide, without any such assumptions.
(§1) For the TFE titrations, a peptide concentration of 40 μM was used. The samples were prepared the day before and left overnight at 5 °C to reach equilibrium. The experiments in aqueous solution were acquired at 5 °C, in 50 mM sodium phosphate buffer, pH 6.8. Raw ellipticity was converted to molar ellipiticity, [Θ], from which the percentage of helical populations was determined. Co-solvent concentrations were indicated in percentage of volume. […] Fitting of the titration curves, obtained by observation of the molar ellipticity at 222 nm as the TFE concentration was increased, was carried out with Kaleidagraph (Synergy software).

Data set [2] can be described thus: Far-UV CD of isolated peptides in aqueous solution (helicity). It counts as physicochemical. To be noted: 5 °C, 50 mM phosphate pH 6.8. As for the experimental part:
Spectra were acquired on a Jasco J815 spectropolarimeter (Jasco, Japan) interfaced with a Peltier unit. The instrument was periodically calibrated with (+) 10-camphorsulphonic acid. Far-UV measurements (in aqueous or TFE solutions) were performed in 0.1-cm-pathlength quartz cells (Hellma), with a response time of 2 s, a band width of 1 nm, data were collected every 0.2 nm, and a scan velocity of 50 nm/min (or 20 nm/min). […] In all peptides, two concentrations (10 μM and 70 μM) in aqueous solutions (50 mM sodium phosphate buffer, pH 6.8 […]) were used to determine whether either the shapes or the intensities of the spectra were concentration-dependent. […] In all cases (aqueous solution or TFE titrations), the corresponding blank solutions (containing only buffer, or buffer and the corresponding amount of TFE) were subtracted from the spectra.
as §1

In data set [3] the target is T1, human MDM2 (residues 2–125) (Homo sapiens, UniProt Q00987).
T1 construct: human MDM2 (residues 2–125); made in house; host or cells: E. coli BL21 (DE3)
Briefly: Stopped-flow fluorescence kinetics of p53-peptide binding to MDM2. To be noted: stopped-flow Trp fluorescence, 15 °C, 50 mM Tris-HCl pH 8.0, 250 mM NaCl, 0.5 mM TCEP, peptide 0.125 μM, ± fitting error. As for the experimental part: (§2) Expression and purification of human MDM2 (residues 2–125) was carried out as described[23] in BL21 (DE3) cells. […] Protein concentration was determined from the absorbance of its seven Tyr residues.
The kinetics of the MDM2/p53-peptide interaction was measured at 15 °C using an Applied Photophysics stopped-flow fluorimeter in the same buffer as that used in the equilibrium fluorescence experiments. The experimental procedure has been described previously. Association kinetics was measured under pseudo-first order conditions, by keeping the MDM2 concentration in excess of that of the peptide. […] Excitation wavelength was 280 nm with a cut-off filter of 315 nm on the emission side. The slit widths were 10 nm for excitation and emission.
At each MDM2 concentration a minimum of six traces were acquired; and the fitting in all cases for all peptides was carried out with the averaging of at least four traces. The averaged trace was always fitted to a single exponential function, which yielded, kobs. Fitting to a single exponential curve was carried out by using Kaleidagraph (Synergy Software); reported errors in kobs are from the exponential fitting. The dissociation (koff) and association (kon) rate constants were obtained from the straight line: kobs=kon×[MDM2]+koff.
Errors in both rates were from the linear fitting; the errors were always larger for koff due to the extrapolation to the y-axis intercept.

The target of data set [4] is T1, human MDM2 (residues 2–125). Briefly: Equilibrium fluorescence titration of p53-peptides and MDM2. The note with it: fluorescence at 315 nm, excitation 280 nm; MDM2 4 μM, peptide 0–10 μM; 15 °C, pH 8.0 Tris-HCl, 250 mM NaCl, 0.5 mM TCEP; overnight equilibration; titration repeated twice; read-out: Kd from fluorescence titrations. It is filed as binding. As for the experimental part:
as §2

In data set [5] the target is T2, human MDM2 (residues 2–125) (human, UniProt Q00987 2-125).
T2 construct: MDM2 (murine double minute 2), human, N-terminal domain, residues 2-125; no tag is named; also called N-terminal domain of MDM2
The data set can be described thus: other fluorescence titration; peptide 0–10 μM added to 4 μM MDM2; fluorescence at 315 nm after excitation at 280 nm; 15 °C; 50 mM Tris-HCl pH 8.0, 250 mM NaCl, 0.5 mM TCEP; samples left overnight at 5 °C. The note with it: both partners purified.

The target in data set [6] is T2, human MDM2 (residues 2–125). Briefly: ITC; p53 peptide in the syringe titrated into MDM2 in the cell; Auto-iTC200; 15 °C; 50 mM Tris-HCl pH 8.0, 250 mM NaCl, 0.5 mM TCEP. The note with it: both partners purified. A general note: Isothermal titration calorimetry measures the heat released or taken up as one component is titrated into another.
The target is the same in data set [7]. The data set can be described thus: stopped-flow fluorescence; pseudo-first order, peptide 0.125 μM final, MDM2 in excess (typically 1 μM to 3 μM); Trp23 fluorescence, excitation 280 nm, 315 nm cut-off; 15 °C; 50 mM Tris-HCl pH 8.0, 250 mM NaCl, 0.5 mM TCEP; Kd as koff/kon assuming a two-state reaction. To be noted: both partners purified.
The mark [8] stands for this setting: CD at 222 nm, two-state fit, ± fitting error.

T1 sequence (Q00987 2-125): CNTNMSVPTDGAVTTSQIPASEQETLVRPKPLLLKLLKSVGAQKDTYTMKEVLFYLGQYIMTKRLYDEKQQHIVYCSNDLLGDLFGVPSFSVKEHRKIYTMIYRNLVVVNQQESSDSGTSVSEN
T2 sequence (Q00987 2-125): as above

Consider `CC(=O)N[C@@H](CCC(=O)O)C(=O)N[C@H](C(=O)N[C@@H](Cc1ccccc1)C(=O)N[C@@H](CCC(=O)O)C(=O)N[C@@H](CC(=O)O)C(=O)N[C@@H](CC(C)C)C(=O)N[C@@H](Cc1c[nH]c2ccccc12)C(=O)N[C@@H](CCCCN)C(=O)N[C@@H](CC(C)C)C(=O)N[C@@H](CC(C)C)C(=O)N1CCC[C@H]1C(=O)N[C@@H](CCC(=O)O)C(=O)N[C@@H](CC(N)=O)C(N)=O)[C@@H](C)O` [P53-E20], for which, in data set [1] (setting [8]), the “[TFE]1/2 (midpoint of TFE titration)” value is given as 25 ± 2 % (vol:vol) and the “m (m-value of TFE titration)” value is given as 231 ± 141 cal mol^−1(%)^−1. The “% Helix in water (from ΔG in TFE titrations)” value in data set [1] (from ΔG = [TFE]1/2 × m, for 1% values the error was 10%) is reported as 1%. Besides, in data set [2] (far-UV CD), the “molar ellipticity at 222 nm, [Θ]222” value is −2911 deg cm^2 dmol^−1. Moreover, in data set [2] (from molar ellipticity at 222 nm assuming 100% helix = −31500 deg cm^2 dmol^−1), the “% Helix in water ([Θ]222)” value came to 9.2%. In data set [3] (MDM2 1–3 μM, pseudo-first order, slope, read-out: kon 10^6), the on-rate (kon) (commonly the rate constant with which the complex forms) came to 9e+06 ± 2e+06 M⁻¹ s⁻¹. Further, in data set [3] (y-axis intercept of pseudo-first-order plot), the koff – broadly, the first-order rate constant of dissociation – turned out to be 8 ± 5 s⁻¹. In data set [4], the Kd stood at 700 ± 100 nM.

B1: Ac-EeFdDLWKLLPEN-NH2 (P53-E18-D20) (peptide)
peptide: Ac-EEFDDLWKLLPEN-NH2
notes: also called double phosphomimetic mutant
Turning to B1, the Kd was 8.3 ± 4.9 µM in data set [5], 20.4 µM in data set [6] and 4 ± 3 µM in data set [7]. For the same molecule, in data set [6], the “Log KA” value is 4.69. In data set [6], this molecule had a dH of -8.8 kcal/mol.
